Results: US20100298141A1, “SUBSTITUTED PYRIDINE N-OXIDE HERBICIDES” (E. I. DU PONT DE NEMOURS AND COMPANY, priority 2007, published 2010)

What was measured:
redroot pigweed = experiment: Test A pre-/postemergence greenhouse test; type: in vivo, Amaranthus retroflexus; conditions: for Plant response rating, Pigweed: 0 to 100 scale where 0 is no effect and 100 is complete control; for Pigweed plant response rating: 0 to 100 scale
How it was run: (§1)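 Visual injury ratings, made relative to untreated controls roughly ten days after treatment, cover both preemergence and postemergence application. Compounds in a surfactant-containing non-phytotoxic solvent were sprayed onto the soil surface after sowing and, simultaneously, onto young plants at the one- to two-leaf stage.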

barnyardgrass [1] = experiment: Test A pre-/postemergence greenhouse test; type: in vivo, Echinochloa crus-galli; conditions: for Plant response rating, Barnyardgrass: 0 to 100 scale where 0 is no effect and 100 is complete control; for Barnyardgrass plant response rating: 0 to 100 scale
How it was run: as §1

morningglory = experiment: Test A pre-/postemergence greenhouse test; type: in vivo, Ipomoea spp.; conditions: for Plant response rating, Morningglory: 0 to 100 scale where 0 is no effect and 100 is complete control; for Morningglory plant response rating: 0 to 100 scale
How it was run: as §1

giant foxtail = experiment: Test A pre-/postemergence greenhouse test; type: in vivo, Setaria faberi; conditions: for Plant response rating, Foxtail, Giant: 0 to 100 scale where 0 is no effect and 100 is complete control; for Foxtail, Giant plant response rating: 0 to 100 scale
How it was run: as §1

rice = experiment: Test C flooded paddy test; type: in vivo, Oryza sativa; conditions: Flood
How it was run: (§2)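 Compound was added to standing water 3 cm above soil, flood maintained, and plants held in a greenhouse before visual scoring against controls at 13 to 15 days.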

corn = experiment: Test A pre-/postemergence greenhouse test; type: in vivo, Zea mays; conditions: for Plant response rating, Corn: 0 to 100 scale where 0 is no effect and 100 is complete control; for Corn plant response rating: 0 to 100 scale
How it was run: as §1

duck salad = experiment: Test C flooded paddy test; type: in vivo, Heteranthera limosa; conditions: Flood
How it was run: as §2

barnyardgrass [2] = experiment: Test C flooded paddy test; type: in vivo, Echinochloa crus-galli; conditions: Flood
How it was run: as §2

crabgrass = experiment: Test A pre-/postemergence greenhouse test; type: in vivo, Digitaria sanguinalis; conditions: for Plant response rating, Crabgrass, Large: 0 to 100 scale where 0 is no effect and 100 is complete control; for Crabgrass, Large plant response rating: 0 to 100 scale
How it was run: as §1

wheat = experiment: Test A pre-/postemergence greenhouse test; type: in vivo, Triticum aestivum; conditions: for Plant response rating, Wheat: 0 to 100 scale where 0 is no effect and 100 is complete control; for Wheat plant response rating: 0 to 100 scale
How it was run: as §1

velvetleaf = experiment: Test A pre-/postemergence greenhouse test; type: in vivo, Abutilon theophrasti; conditions: for Plant response rating, Velvetleaf: 0 to 100 scale where 0 is no effect and 100 is complete control; for Velvetleaf plant response rating: 0 to 100 scale
How it was run: as §1

umbrella sedge = experiment: Test C flooded paddy test; type: in vivo, Cyperus difformis; conditions: Flood
How it was run: as §2

[3] = Postemergence, 500 g ai/ha, 0 is no effect, 100 is complete control
[4] = Preemergence, 125 g ai/ha, 0 no effect, 100 complete control
[5] = 62 g ai/ha, scale 0 to 100, 0 no effect, 100 complete control, 13 to 15 days
[6] = 250 g ai/ha, scale 0 to 100, 0 no effect, 100 complete control, 13 to 15 days
[7] = 62 g ai/ha, scale 0 to 100 (0 no effect, 100 complete control)
[8] = Preemergence, 500 g ai/ha, 0 no effect, 100 complete control
[9] = 31 g ai/ha, scale 0 to 100 (0 no effect, 100 complete control)
[10] = 125 g ai/ha, scale 0 to 100, 0 no effect, 100 complete control, 13 to 15 days

O=S(=O)(Cc1c(C(F)(F)F)nn(CC(F)(F)F)c1Cl)c1cccc[n+]1[O-] [Compound 44]
40: Morningglory plant response rating (morningglory; [3]) | Plant response rating, Ducksalad (duck salad; [6])
60: Plant response rating, Morningglory (morningglory; Preemergence, 500 g ai/ha) | Crabgrass, Large plant response rating (crabgrass; [4])
80: Barnyardgrass plant response rating (barnyardgrass [1]; [3]) | Foxtail, Giant plant response rating (giant foxtail; [3]) | Crabgrass, Large plant response rating (crabgrass; [3])
50: Plant response rating, Sedge, Umbrella (umbrella sedge; [6])
70: Plant response rating, Barnyardgrass (barnyardgrass [1]; Postemergence, 125 g ai/ha) | Barnyardgrass plant response rating (barnyardgrass [1]; [4]) | Plant response rating, Foxtail, Giant (giant foxtail; Postemergence, 125 g ai/ha) | Plant response rating, Crabgrass, Large (crabgrass; Postemergence, 125 g ai/ha)
0: Plant response rating, Pigweed (redroot pigweed; Postemergence, 125 g ai/ha) | Pigweed plant response rating (redroot pigweed; [4]) | Morningglory plant response rating (morningglory; [4]) | Plant response rating, Rice (rice; [5]) | Plant response rating, Corn (corn; Postemergence, 125 g ai/ha) | Corn plant response rating (corn; [3]) | Corn plant response rating (corn; [4]) | Plant response rating, Corn (corn; Preemergence, 500 g ai/ha) | Plant response rating, Ducksalad (duck salad; [5]) | Plant response rating, Barnyardgrass (barnyardgrass [2]; [5]) | Plant response rating, Barnyardgrass (barnyardgrass [2]; [6]) | Plant response rating, Wheat (wheat; Postemergence, 125 g ai/ha) | Wheat plant response rating (wheat; [3]) | Wheat plant response rating (wheat; [4]) | Plant response rating, Velvetleaf (velvetleaf; Postemergence, 125 g ai/ha) | Velvetleaf plant response rating (velvetleaf; [4])
90: Plant response rating, Barnyardgrass (barnyardgrass [1]; Preemergence, 500 g ai/ha) | Foxtail, Giant plant response rating (giant foxtail; [4])
100: Plant response rating, Pigweed (redroot pigweed; Preemergence, 500 g ai/ha) | Plant response rating, Foxtail, Giant (giant foxtail; Preemergence, 500 g ai/ha) | Plant response rating, Crabgrass, Large (crabgrass; Preemergence, 500 g ai/ha)
10: Pigweed plant response rating (redroot pigweed; [3]) | Plant response rating, Morningglory (morningglory; Postemergence, 125 g ai/ha)
30: Plant response rating, Rice (rice; [6]) | Velvetleaf plant response rating (velvetleaf; [3]) | Plant response rating, Velvetleaf (velvetleaf; Preemergence, 500 g ai/ha)
20: Plant response rating, Wheat (wheat; Preemergence, 500 g ai/ha)

Cc1cc[n+]([O-])c([S+]([O-])Cc2c(C(F)(F)F)nn(C)c2OCC(F)F)c1 (stereo not shown) [Compound 86]
70: Plant response rating, Barnyardgrass (barnyardgrass [1]; Postemergence, 125 g ai/ha) | Barnyardgrass plant response rating (barnyardgrass [1]; [4]) | Crabgrass, Large plant response rating (crabgrass; [4]) | Wheat plant response rating (wheat; [3]) | Wheat plant response rating (wheat; [4]) | Velvetleaf plant response rating (velvetleaf; [3])
10: Velvetleaf plant response rating (velvetleaf; [4])
65: Plant response rating, Ducksalad (duck salad; [7])
80: Plant response rating, Foxtail, Giant (giant foxtail; Postemergence, 125 g ai/ha) | Corn plant response rating (corn; [3]) | Velvetleaf plant response rating (velvetleaf; [8])
20: Corn plant response rating (corn; [4])
0: Plant response rating, Rice (rice; [7]) | Plant response rating, Rice (rice; [6]) | Plant response rating, Corn (corn; Postemergence, 125 g ai/ha) | Plant response rating, Barnyardgrass (barnyardgrass [2]; [7]) | Plant response rating, Barnyardgrass (barnyardgrass [2]; [6])
100: Plant response rating, Pigweed (redroot pigweed; Preemergence, 500 g ai/ha) | Plant response rating, Barnyardgrass (barnyardgrass [1]; Preemergence, 500 g ai/ha) | Plant response rating, Foxtail, Giant (giant foxtail; Preemergence, 500 g ai/ha) | Plant response rating, Ducksalad (duck salad; [6]) | Plant response rating, Crabgrass, Large (crabgrass; Preemergence, 500 g ai/ha)
60: Plant response rating, Pigweed (redroot pigweed; Postemergence, 125 g ai/ha) | Plant response rating, Morningglory (morningglory; Postemergence, 125 g ai/ha)
45: Plant response rating, Sedge, Umbrella (umbrella sedge; [7])
90: Pigweed plant response rating (redroot pigweed; [3]) | Pigweed plant response rating (redroot pigweed; [4]) | Barnyardgrass plant response rating (barnyardgrass [1]; [3]) | Morningglory plant response rating (morningglory; [3]) | Plant response rating, Morningglory (morningglory; Preemergence, 500 g ai/ha) | Foxtail, Giant plant response rating (giant foxtail; [3]) | Foxtail, Giant plant response rating (giant foxtail; [4]) | Crabgrass, Large plant response rating (crabgrass; [3]) | Wheat plant response rating (wheat; [8])
95: Plant response rating, Sedge, Umbrella (umbrella sedge; [6])
50: Morningglory plant response rating (morningglory; [4]) | Plant response rating, Corn (corn; Preemergence, 500 g ai/ha) | Plant response rating, Crabgrass, Large (crabgrass; Postemergence, 125 g ai/ha) | Plant response rating, Wheat (wheat; Postemergence, 125 g ai/ha) | Plant response rating, Velvetleaf (velvetleaf; Postemergence, 125 g ai/ha)

Cc1cc(S(=O)(=O)Cc2c(C(F)(F)F)nn(C)c2OCC(F)(F)F)[n+]([O-])cc1Cl [Compound 71]
100: Plant response rating, Pigweed (redroot pigweed; Preemergence, 500 g ai/ha) | Plant response rating, Foxtail, Giant (giant foxtail; Preemergence, 500 g ai/ha) | Plant response rating, Crabgrass, Large (crabgrass; Preemergence, 500 g ai/ha)
10: Plant response rating, Morningglory (morningglory; Preemergence, 500 g ai/ha)
90: Plant response rating, Barnyardgrass (barnyardgrass [1]; Preemergence, 500 g ai/ha) | Foxtail, Giant plant response rating (giant foxtail; [4])
60: Plant response rating, Rice (rice; [6])
20: Corn plant response rating (corn; [4]) | Plant response rating, Corn (corn; Preemergence, 500 g ai/ha) | Plant response rating, Barnyardgrass (barnyardgrass [2]; [7]) | Plant response rating, Barnyardgrass (barnyardgrass [2]; [6]) | Plant response rating, Velvetleaf (velvetleaf; Postemergence, 125 g ai/ha)
30: Morningglory plant response rating (morningglory; [3]) | Plant response rating, Rice (rice; [7]) | Corn plant response rating (corn; [3]) | Plant response rating, Crabgrass, Large (crabgrass; Postemergence, 125 g ai/ha) | Plant response rating, Wheat (wheat; Postemergence, 125 g ai/ha) | Plant response rating, Velvetleaf (velvetleaf; Preemergence, 500 g ai/ha) | Plant response rating, Sedge, Umbrella (umbrella sedge; [6])
80: Barnyardgrass plant response rating (barnyardgrass [1]; [3]) | Foxtail, Giant plant response rating (giant foxtail; [3])
70: Pigweed plant response rating (redroot pigweed; [3]) | Pigweed plant response rating (redroot pigweed; [4]) | Plant response rating, Ducksalad (duck salad; [6]) | Crabgrass, Large plant response rating (crabgrass; [3])
0: Plant response rating, Morningglory (morningglory; Postemergence, 125 g ai/ha) | Morningglory plant response rating (morningglory; [4]) | Plant response rating, Corn (corn; Postemergence, 125 g ai/ha) | Plant response rating, Ducksalad (duck salad; [7]) | Wheat plant response rating (wheat; [4]) | Velvetleaf plant response rating (velvetleaf; [4]) | Plant response rating, Sedge, Umbrella (umbrella sedge; [7])
40: Plant response rating, Barnyardgrass (barnyardgrass [1]; Postemergence, 125 g ai/ha) | Barnyardgrass plant response rating (barnyardgrass [1]; [4]) | Plant response rating, Foxtail, Giant (giant foxtail; Postemergence, 125 g ai/ha) | Plant response rating, Wheat (wheat; Preemergence, 500 g ai/ha)
50: Plant response rating, Pigweed (redroot pigweed; Postemergence, 125 g ai/ha) | Crabgrass, Large plant response rating (crabgrass; [4]) | Wheat plant response rating (wheat; [3]) | Velvetleaf plant response rating (velvetleaf; [3])

CC(c1c(C(F)(F)F)nn(CC(F)(F)F)c1Cl)S(=O)(=O)c1ccc(Cl)c[n+]1[O-] (stereo not shown) [Compound 55]
75: Plant response rating, Sedge, Umbrella (umbrella sedge; [6])
60: Foxtail, Giant plant response rating (giant foxtail; [4]) | Plant response rating, Ducksalad (duck salad; [10]) | Plant response rating, Ducksalad (duck salad; [6])
65: Plant response rating, Sedge, Umbrella (umbrella sedge; [10])
30: Pigweed plant response rating (redroot pigweed; [3]) | Barnyardgrass plant response rating (barnyardgrass [1]; [4]) | Velvetleaf plant response rating (velvetleaf; [3])
100: Plant response rating, Pigweed (redroot pigweed; Preemergence, 500 g ai/ha) | Plant response rating, Barnyardgrass (barnyardgrass [1]; Preemergence, 500 g ai/ha)
40: Plant response rating, Barnyardgrass (barnyardgrass [1]; Postemergence, 125 g ai/ha) | Plant response rating, Ducksalad (duck salad; [5])
20: Plant response rating, Rice (rice; [6])
0: Plant response rating, Pigweed (redroot pigweed; Postemergence, 125 g ai/ha) | Plant response rating, Morningglory (morningglory; Postemergence, 125 g ai/ha) | Morningglory plant response rating (morningglory; [4]) | Plant response rating, Rice (rice; [9]) | Plant response rating, Rice (rice; [5]) | Plant response rating, Rice (rice; [10]) | Plant response rating, Corn (corn; Postemergence, 125 g ai/ha) | Corn plant response rating (corn; [3]) | Corn plant response rating (corn; [4]) | Plant response rating, Corn (corn; Preemergence, 500 g ai/ha) | Plant response rating, Ducksalad (duck salad; [9]) | Plant response rating, Barnyardgrass (barnyardgrass [2]; [9]) | Plant response rating, Barnyardgrass (barnyardgrass [2]; [5]) | Plant response rating, Barnyardgrass (barnyardgrass [2]; [10]) | Plant response rating, Barnyardgrass (barnyardgrass [2]; [6]) | Plant response rating, Wheat (wheat; Postemergence, 125 g ai/ha) | Wheat plant response rating (wheat; [3]) | Wheat plant response rating (wheat; [4]) | Plant response rating, Wheat (wheat; Preemergence, 500 g ai/ha) | Plant response rating, Velvetleaf (velvetleaf; Postemergence, 125 g ai/ha) | Velvetleaf plant response rating (velvetleaf; [4]) | Plant response rating, Velvetleaf (velvetleaf; Preemergence, 500 g ai/ha) | Plant response rating, Sedge, Umbrella (umbrella sedge; [9])
70: Plant response rating, Foxtail, Giant (giant foxtail; Postemergence, 125 g ai/ha)
50: Morningglory plant response rating (morningglory; [3]) | Plant response rating, Morningglory (morningglory; Preemergence, 500 g ai/ha) | Plant response rating, Crabgrass, Large (crabgrass; Postemergence, 125 g ai/ha)
90: Pigweed plant response rating (redroot pigweed; [4]) | Plant response rating, Foxtail, Giant (giant foxtail; Preemergence, 500 g ai/ha) | Plant response rating, Crabgrass, Large (crabgrass; Preemergence, 500 g ai/ha)
80: Barnyardgrass plant response rating (barnyardgrass [1]; [3]) | Foxtail, Giant plant response rating (giant foxtail; [3]) | Crabgrass, Large plant response rating (crabgrass; [3]) | Crabgrass, Large plant response rating (crabgrass; [4])
